# Experimental data reported in ChEMBL document CHEMBL4665744, “Diverse Types of Diterpenoids with an Aromatized C Ring from the Twigs of Podocarpus imbricatus” (J Nat Prod, 2020).
# Activity calls are given as the source filed them. No cut-off for these calls is given here.
# What was measured:
# [1] = Cytotoxicity activity against African green monkey Vero cells assessed as reduction in cell viability by MTT assay; type: cell-based; conditions: chlorocebus sabaeus
# Zika virus = test: Antiviral activity against Zika virus; type: functional, organism-based
structure (smiles),measurement,setting,value
COc1c(C)c2c(c(O)c1C/C=C(\C)CCC(=O)O)C(=O)OC2 [MYCOPHENOLIC ACID],CC50,[1],18.7 µM
CC(C)c1c(O)ccc2c1CC[C@H]1C(C)(C)CC[C@@H](O)[C@]21C,Activity,Zika virus,inactive
CC(C)c1cc2c(cc1O)[C@@H](O)[C@@H](O)[C@H]1[C@](C)(CO)CCC[C@]21C,IC50,Zika virus,2.5 µM
C[C@H](CO)c1cc2c(cc1O)[C@@]1(C)CCC[C@](C)(C(=O)O)[C@@H]1CC2,Activity,Zika virus,inactive
CC(C)c1cc2c(cc1O)C[C@@H](O)[C@H]1[C@](C)(CO)CCC[C@]21C,Activity,Zika virus,inactive
